Reference: patent publication US9605285B2, “Compositions and methods for succinate production” (CARGILL, INCORPORATED, priority 2011, dated 2017)

Tested on: yeast cells
Assay: EMS mutagenesis of yeast cells
Assay type: cell-based
Conditions: 3 μL EMS per 200 μL cell suspension, approximately one hour
Experimental: For example, yeast cells from a fresh YP (yeast extract/peptone)+20 g/L glucose plate or liquid culture (OD600 1-4) are resuspended in sterile water to an OD600 of around 10. 200 μL aliquots of this cell suspension are pipetted into individual tubes and exposed to 3 μL […] (EMS) for approximately one hour, which kills around 65% of the cells. Higher EMS concentrations can also be used to increase the kill rate. After exposure, cells are neutralized with 5% sodium thiosulfate, washed in PBS buffer, recovered in rich media for approximately four hours, and cultured on selective media. Mock samples (no EMS) are also run to ensure that the conditions are selective. Alternatively, cell can be mutagenized using UV irradiation.

CCOS(C)(=O)=O [EMS, ethane methyl sulfonate]
Cells killed: around 65%
